Measurements taken from US6451853B1, “Small molecules that elicit a polarized Th1 response and for modulation of cellular immunity” (Dovetail Technologies, Inc, priority 1998, dated 2002).
Values joined by “and” are separate entries in the source; they are usually repeats but may differ in a detail not shown here. Identical values can stand only once. Like-named read-outs stand apart in the source and are kept apart here.

Columns and labels:
[1] = tested on: soluble TNF alpha release from human lymphocytes; assay: Soluble TNF alpha in supernatants by ELISA; details: Media (unstimulated); drugs 20 mM; ELISA standard curve in pg/mL, unit not given
[2] = tested on: surface TNF alpha on human monocytes; assay: Surface TNF alpha expression on monocytes by FACS (CD14+ cells); format: cell-based; set-up: TNF alpha from Monocytes, With BT / change with BT versus without BT: unit not given here; details: for TNF alpha from Monocytes, With BT / change with BT versus without BT: 20 mM BT; for surface TNF alpha expression: all drugs 20 mM
Source text: The effect of NAC and BT, alone or in combination, on surface TNF alpha expression by stimulated or unstimulated monocytes (prepared from PBM) was examined. […] Table 6. While only a small proportion of T cells from each donor were responsive to the combination NAC/BT, the effect on surface TNF alpha expression in monocytes was significant.

[3] = tested on: TNF-R I on T cells (PBMCs); assay: TNF receptor I expression on T cells by FACS
[4] = tested on: Cytokine mRNA from T cells (PBMC); assay: RNase protection assay of cytokine mRNA in PBMC (T cells), with or without PMA/ionomycin; details: for PMA/ionomycin-induced upregulation of TNF alpha message: PMA/ionomycin stimulation
CD-1 mice = details: for Mortality: CD-1 mice
in vivo = details: both, CD-1, mouse, iv
[5] = tested on: panel of human T-cell lines; assay: Surface TNF alpha expression on a panel of human T-cell lines; format: cell-based; details: data not shown
[6] = tested on: Monocyte Chemokine Message levels; assay: RNase protection assay of monocyte chemokine message levels; format: cell-based, human; details: Media + beta-alethine 20 mM; RPA phosphorimaging normalized on L32
Procedure: Monocyte expression of chemokines was also assessed in beta-alethine-treated cells (Table 3). While IP-10 expression was decreased by beta-alethine, the levels of the chemoattractants MIP-1a and IL-8 were increased slightly. Bacterial infections are contained by an inflammatory response. MIP-1a recruits macrophages, T cells and eosinophils to the infection site, and IL-8 recruits neutrophils. Therefore both of these chemokines are important in fighting pathogen-induced infections.

HL60 targets = assay: T cell-dependent cytotoxicity toward HL60 targets (MTT reduction assay)
[7] = tested on: surface TNF alpha on human T cells; assay: Surface TNF alpha expression on T cells by FACS (gating on CD3+ cells); details: for Change in with BT/without BT: 20 mM BT; for % Positive ± SD (T cells expressing high levels of surface TNF alpha) / MFI ± SD: PMA/ionomycin; for surface TNF alpha, overall MFI: With BT 20 mM; for surface TNF alpha level: unstimulated T cells, BT alone 20 mM, single donor
[8] = Media (no stimulation), individual donors/dates
[9] = Stimulation, individual donors/dates
[10] = BT 27 nM, no stimulation, 6 hours
[11] = BT 2.7 uM, no stimulation, 6 hours
[12] = BT 20 mM, no stimulation, 6 hours
[13] = stimulation 1 micromolar Ionomycin and 10 ng/ml PMA, 48 hrs
[14] = stimulation 1 micromolar Ionomycin and 10 ng/ml PMA, individual donors/dates

NCCC(=O)NCCSSCCNC(=O)CCN [BT, beta-alethine]
Soluble TNF [1]: 29
TNF alpha from Monocytes, With BT ([2]; Media (no stimulation), 48 hrs): 14.22
change with BT versus without BT ([2]; Media (no stimulation), 48 hrs): 0.07037
TNF alpha from Monocytes, With BT [2, 8]: 124.26 and 10.53 and 24.06
change with BT versus without BT [2, 8]: 78.87 and −44.17 and 18.58
TNF alpha from Monocytes, With BT ([2]; Stimulation, 48 hrs): 34.59
change with BT versus without BT ([2]; Stimulation, 48 hrs): −6.107
TNF alpha from Monocytes, With BT [2, 9]: 71.42 and 202.15 and 41.97 and 143.51 and 87.59
change with BT versus without BT [2, 9]: 11.54 and 249.1 and −52.59 and 126.7 and 127.7
surface TNF alpha expression ([2]; stimulated monocytes): induced significant surface TNF alpha expression
surface TNF alpha expression ([2]; unstimulated monocytes): not upregulated
TNF Receptor I Expression (mean fluorescent channel) ([3]; PMA/ionomycin + 20 mM BT, 20 hours): 329
TNF Receptor I Expression (mean fluorescent channel) ([3]; PMA/ionomycin + 20 mM BT, 45 hours): 548
TNF Receptor I Expression (mean fluorescent channel) ([3]; PMA/ionomycin + 20 mM BT, 69 hours): 489
TNF Receptor I Expression (mean fluorescent channel) ([3]; unstimulated, 20 mM BT, 20 hours): 136
TNF Receptor I Expression (mean fluorescent channel) ([3]; unstimulated, 20 mM BT, 45 hours): 109
TNF Receptor I Expression (mean fluorescent channel) ([3]; unstimulated, 20 mM BT, 69 hours): 96
% Change GAPDH mRNA [4, 10]: −10.95%
% Change IFNg mRNA [4, 10]: 21.11%
% Change LTb mRNA [4, 10]: 27.48%
% Change TGFb1 mRNA [4, 10]: 26.69%
% Change TNFa mRNA [4, 10]: 10.04%
% Change TNFb mRNA [4, 10]: 42.88%
% Change GAPDH mRNA [4, 11]: −4.78%
% Change IFNg mRNA [4, 11]: 20.17%
% Change LTb mRNA [4, 11]: 25.70%
% Change TGFb1 mRNA [4, 11]: 42.15%
% Change TNFa mRNA [4, 11]: 24.94%
% Change TNFb mRNA [4, 11]: 220.87%
% Change IFNg mRNA [4, 12]: 109.71% and 94.74% and 139.51%
% Change IL-1Ra mRNA [4, 12]: 30.84%
% Change IL-1a mRNA [4, 12]: 9.07%
% Change IL-1b mRNA [4, 12]: 60.09%
% Change IL-2 mRNA [4, 12]: 95.02%
% Change IL-4 mRNA [4, 12]: 135.82%
% Change IL-5 mRNA [4, 12]: 161.15%
% Change IL-8 mRNA [4, 12]: 10.65%
% Change IL-9 mRNA [4, 12]: 22.86%
% Change IL-13 mRNA [4, 12]: 83.76%
% Change IL-15 mRNA [4, 12]: 4.88%
% Change LTN* mRNA [4, 12]: 58.25%
% Change LTb mRNA [4, 12]: 117.13%
% Change MIP-1 alpha mRNA [4, 12]: 25.98%
% Change MIP-1 beta mRNA [4, 12]: −4.79%
% Change RANTES mRNA [4, 12]: −2.09%
% Change TGFb1 mRNA [4, 12]: 82.08%
% Change TNFa mRNA [4, 12]: 168.85%
% Change TNFb mRNA [4, 12]: 77.91%
ratio of TNF alpha: TGF beta message (densitometry) ([4]; PMA/ionomycin + 20 mM BT (PMA/ionomycin alone 3.61)): 7.12
PMA/ionomycin-induced upregulation of TNF alpha message ([4]; 2.7 mM BT, 6 hours): maintained
PMA/ionomycin-induced upregulation of TNF alpha message ([4]; 20 mM BT, 6 hours): further enhanced
ratio of TNF alpha: TGF beta message (densitometry) ([4]; media + 20 mM BT (media alone 0.092)): 1.36
gross pathology at necropsy (CD-1 mice; mouse, in vivo): No gross pathology
Mortality (CD-1 mice; single bolus intravenous dose 67 mg/kg): 0/2
Mortality (CD-1 mice; single bolus intravenous dose 333 mg/kg): 1/3
Mortality (CD-1 mice; single bolus intravenous dose 667 mg/kg): 2/2
LD50 at 2 weeks (in vivo): > 100 mg/kg
surface TNF alpha expression [5]: induced upregulation
IL-8 message level [6]: 11,615,894
IP-10 message level [6]: 55,214
MIP-1 alpha message level [6]: 909,291
MIP-1 beta message level [6]: 554,709
T cell dependent cytotoxic activity toward HL60 in the presence of neutralizing anti-TNF alpha antibodies (HL60 targets; 20 mM BT, PMA/ionomycin stimulated, data not shown): inhibited
T cell-Mediated Cytotoxicity, optical density at 540 nm ± SD (HL60 targets; PMA/ionomycin-stimulated T cells, 0.85 mM, 10:1 effector:target, 24 hours): .191 ± .003
Change in with BT/without BT [7, 13]: 84.527%
Change in with BT/without BT [7, 14]: 45.223% and 66.236% and 49.403% and 71.042% and 4.276% and 68.647% and 152.007% and 27.185% and 104.690% and 325.647%
% Positive ± SD (T cells expressing high levels of surface TNF alpha) ([7]; Dose 2.7 mM, 16 hours): 10.86 ± .92%
MFI ± SD ([7]; Dose 2.7 mM, 16 hours): 94.52 ± 1.83
% Positive ± SD (T cells expressing high levels of surface TNF alpha) ([7]; Dose 20 mM, 16 hours): 24.25 ± 6.25%
MFI ± SD ([7]; Dose 20 mM, 16 hours): 127.37 ± 12.5
% Positive ± SD (T cells expressing high levels of surface TNF alpha) ([7]; Dose .0085 mM, 16 hours): 4.96 ± .41%
MFI ± SD ([7]; Dose .0085 mM, 16 hours): 59.84 ± 4.08
% Positive ± SD (T cells expressing high levels of surface TNF alpha) ([7]; Dose .027 mM, 16 hours): 5.18 ± 1.73%
MFI ± SD ([7]; Dose .027 mM, 16 hours): 63.49 ± .28
% Positive ± SD (T cells expressing high levels of surface TNF alpha) ([7]; Dose .085 mM, 16 hours): 8.4 ± .5%
MFI ± SD ([7]; Dose .085 mM, 16 hours): 74.18 ± 7.98
% Positive ± SD (T cells expressing high levels of surface TNF alpha) ([7]; Dose .27 mM, 16 hours): 7.33 ± .38%
MFI ± SD ([7]; Dose .27 mM, 16 hours): 71.17 ± .77
% Positive ± SD (T cells expressing high levels of surface TNF alpha) ([7]; Dose .85 mM, 16 hours): 9.38 ± 1.57%
MFI ± SD ([7]; Dose .85 mM, 16 hours): 81.93 ± 6.33
time for which increased surface TNF alpha expression was sustained ([7]; PMA/ionomycin-stimulated cells): over 50 hours
surface TNF alpha expression, Time Course ([7]; Pma/iono, 6 hours, 2.7 mM): 149
surface TNF alpha expression, Time Course ([7]; Pma/iono, 6 hours, each drug 20 mM): 112
surface TNF alpha expression, Time Course ([7]; Pma/iono, 16 hours, 2.7 mM): 179
surface TNF alpha expression, Time Course ([7]; Pma/iono, 16 hours, each drug 20 mM): 220
surface TNF alpha expression, Time Course ([7]; Pma/iono, 24 hours, 2.7 mM): 208
surface TNF alpha expression, Time Course ([7]; Pma/iono, 24 hours, each drug 20 mM): 226
surface TNF alpha expression, Time Course ([7]; Pma/iono, 42 hours, 2.7 mM): 120
surface TNF alpha expression, Time Course ([7]; Pma/iono, 42 hours, each drug 20 mM): 247
surface TNF alpha expression, Time Course ([7]; Pma/iono, 68 hours, 2.7 mM): 64
surface TNF alpha expression, Time Course ([7]; Pma/iono, 68 hours, each drug 20 mM): 174
surface TNF alpha, overall MFI [7, 13]: 146.81
surface TNF alpha, overall MFI [7, 14]: 164.48 and 83.65 and 123.87 and 25.93 and 48.53 and 105.59 and 435.04 and 25.17 and 508.43 and 292.59
surface TNF alpha, overall MFI ([7]; stimulation with 1 ng PMA, individual donors): 133.13 and 25.41
surface TNF alpha level ([7]; 15 hours post-exposure (control 25)): 75
surface TNF alpha level ([7]; forty hours (control 25)): 100
surface TNF alpha expression, Time Course ([7]; unstimulated, 6 hours, 2.7 mM): 22
surface TNF alpha expression, Time Course ([7]; unstimulated, 6 hours, each drug 20 mM): 32
surface TNF alpha expression, Time Course ([7]; unstimulated, 16 hours, 2.7 mM): 42
surface TNF alpha expression, Time Course ([7]; unstimulated, 16 hours, each drug 20 mM): 76
surface TNF alpha expression, Time Course ([7]; unstimulated, 24 hours, 2.7 mM): 47
surface TNF alpha expression, Time Course ([7]; unstimulated, 24 hours, each drug 20 mM): 67
surface TNF alpha expression, Time Course ([7]; unstimulated, 42 hours, 2.7 mM): 79
surface TNF alpha expression, Time Course ([7]; unstimulated, 42 hours, each drug 20 mM): 101
surface TNF alpha expression, Time Course ([7]; unstimulated, 68 hours, 2.7 mM): 30
surface TNF alpha expression, Time Course ([7]; unstimulated, 68 hours, each drug 20 mM): 41
